From paper PMC11017246, “Discovery of GLPG2737, a Potent Type 2 Corrector of CFTR for the Treatment of Cystic Fibrosis in Combination with a Potentiator and a Type 1 Co-corrector” (Journal of Medicinal Chemistry, 2024)

Tests used:
[1] = Hepatocyte stability, human; format: in vitro ADME; settings: for CLint scaled at 1 μM: read-out: Hep CLint,u human
Description: (§1) The hepatocyte stability assay was performed by incubation of test compound at 1 μM, 0.03% DMSO in modified Krebs–Henseleit buffer with suspension of pooled cryopreserved hepatocytes (BioIVT, Hicksville, NY, USA) from mouse, rat, dog, or human (BioIVT, Hicksville, NY, USA) at 0.5 million viable hepatocytes/mL. Before adding the hepatocytes (time zero) and after 10, 20, 45, 90, 120, and 180 min of incubation (n = 2) at 37 °C while gently shaking, the reaction was stopped and proteins were precipitated with an excess of acetonitrile containing an internal standard. The samples were mixed, centrifuged, and filtered, and the supernatant was analyzed by liquid chromatography–mass spectrometry/mass spectrometry (LC–MS/MS). The instrument responses (peak areas/IS peak areas) were referenced to the zero-time point samples (considered as 100%) in order to determine the percentage of compound remaining.

[2] = system: CYP3A4; assay: CYP3A4 induction (mRNA) in human hepatocytes; format: in vitro ADME; settings: for CYP (3A4) mRNA induction, result in words: compared with positive control rifampicin
Description: Cryopreserved human hepatocytes from a single donor were seeded at 0.1 × 10^6 cells/well. The next day, cells were dosed with test compound in assay medium (final test compound concentration 10 μM; final DMSO concentration 0.1%). Positive control inducer, rifampicin, for CYP3A4, was incubated alongside the test compound. Negative control wells were included where the test compound is replaced by vehicle solvent (0.1% DMSO in assay medium). Each test or control compound was dosed in triplicate at a single concentration (10 μM). The cells were exposed to the solutions for 72 h with fresh solution added every 24 h. For mRNA assessment, all media was removed from each of the wells, and the cells were washed once. The cells were lysed, and total RNA was then isolated from the hepatocyte lysates. Reverse transcription was performed, and quantitative PCR analysis was performed on the resulting cDNA, using gene-specific primer probe sets for CYP3A4 target cDNA and endogenous control. Samples were analyzed using an ABI 7900 HT real time PCR system. For mRNA assessment, relative fold mRNA expression was determined based on the threshold cycle (CT) data of target gene relative to endogenous control for each reaction and normalized to negative control using the 2-ΔΔCT method. Data were expressed as fold activation relative to the vehicle control and, as a percent, to the 10 μM rifampicin using the following formula: % of positive control = ((fold increase of the cpd relative to vehicle control – 1)/(fold increase of the rifampicin at 10 μM – 1)) × 100.

[3] = biological target: T1, ΔF508 CFTR (Homo sapiens, UniProt P13569, DEL508-508); assay: TECC (transepithelial clamp circuit) in primary CF-derived HBE cells; format: cell-based; settings: for Emax / EC50: primary ΔF508 homozygous HBE cells, 24 h incubation, with GLPG2222; for Emax: read-out: TECC HBE with GLPG2222 % max activation; for EC50: read-out: TECC HBE with GLPG2222 EC50
T1 construct: host or cells: CFBE41o- TetON cells, expression induced with doxycycline
T1 sequence (P13569 with tags, fused parts or gaps DEL508-508): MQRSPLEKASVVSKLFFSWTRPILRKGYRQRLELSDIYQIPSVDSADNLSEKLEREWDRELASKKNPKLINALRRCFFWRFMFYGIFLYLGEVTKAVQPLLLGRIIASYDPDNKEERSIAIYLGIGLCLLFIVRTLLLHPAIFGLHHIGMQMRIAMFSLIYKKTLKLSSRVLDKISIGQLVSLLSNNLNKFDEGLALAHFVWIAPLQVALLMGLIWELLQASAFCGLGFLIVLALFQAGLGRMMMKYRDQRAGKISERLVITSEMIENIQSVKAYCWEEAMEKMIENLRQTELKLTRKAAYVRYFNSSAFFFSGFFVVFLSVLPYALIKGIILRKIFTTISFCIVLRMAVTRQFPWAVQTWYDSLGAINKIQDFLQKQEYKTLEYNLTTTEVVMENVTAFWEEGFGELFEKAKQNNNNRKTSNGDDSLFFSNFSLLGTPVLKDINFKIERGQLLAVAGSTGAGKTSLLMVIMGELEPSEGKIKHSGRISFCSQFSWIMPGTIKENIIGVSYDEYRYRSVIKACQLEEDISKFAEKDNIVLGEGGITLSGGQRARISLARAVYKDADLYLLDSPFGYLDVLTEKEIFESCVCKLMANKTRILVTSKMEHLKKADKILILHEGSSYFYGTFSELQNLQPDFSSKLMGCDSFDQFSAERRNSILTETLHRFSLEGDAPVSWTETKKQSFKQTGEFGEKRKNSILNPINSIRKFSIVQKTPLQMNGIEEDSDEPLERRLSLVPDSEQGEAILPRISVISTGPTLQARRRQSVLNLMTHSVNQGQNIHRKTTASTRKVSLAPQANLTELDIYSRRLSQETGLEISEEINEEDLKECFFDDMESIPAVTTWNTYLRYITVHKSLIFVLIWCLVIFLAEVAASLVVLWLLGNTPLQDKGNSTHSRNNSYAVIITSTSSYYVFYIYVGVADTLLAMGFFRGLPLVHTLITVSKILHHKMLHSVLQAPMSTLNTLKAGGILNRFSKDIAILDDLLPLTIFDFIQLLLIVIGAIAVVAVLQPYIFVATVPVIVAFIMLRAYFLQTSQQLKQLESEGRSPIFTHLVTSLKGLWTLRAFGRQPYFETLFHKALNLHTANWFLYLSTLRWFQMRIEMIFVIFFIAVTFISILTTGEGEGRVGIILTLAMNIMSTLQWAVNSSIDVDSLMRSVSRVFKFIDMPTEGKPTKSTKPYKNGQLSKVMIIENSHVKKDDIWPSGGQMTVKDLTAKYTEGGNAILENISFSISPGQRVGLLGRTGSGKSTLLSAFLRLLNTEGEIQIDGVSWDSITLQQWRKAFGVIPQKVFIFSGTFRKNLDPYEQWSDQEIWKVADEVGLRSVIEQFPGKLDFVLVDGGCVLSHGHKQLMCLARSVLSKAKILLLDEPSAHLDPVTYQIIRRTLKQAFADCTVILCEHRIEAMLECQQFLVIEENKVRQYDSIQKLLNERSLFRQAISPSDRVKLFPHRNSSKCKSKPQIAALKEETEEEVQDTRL
Description: Bronchial epithelial cells isolated from the lungs of patients with CF homozygous for the ΔF508 CFTR mutation were obtained from McGill University (Montreal, QC, Canada) or the University of North Carolina (Chapel Hill, NC, United States). Cells were isolated from lungs obtained from donors undergoing planned transplantation. These primary cells were cultured directly on type IV collagen-coated polycarbonate Transwell supports with a diameter of 6.5 mm and pore size of 0.4 μm (Costar, #3397) for 18–25 days in an air–liquid interface, essentially as previously described for TECC.[23]
Twenty-four hours prior to the electrophysiological recording, corrector and/or potentiator compounds were added on both the apical and basolateral sides. TECC recordings were performed by using the TECC instrument developed and sold by EP Design (Bertem, Belgium). During the recording, the epithelial cells were bathed in a NaCl-Ringer solution (120 mM NaCl, 20 mM HEPES, 1.2 mM CaCl2, 1.2 mM MgCl2, 0.8 mM KH2PO4, 0.8 mM K2HPO4, 5 mM glucose, pH 7.4) on both the basolateral (640 μL) and the apical (160 μL) sides and kept at 37 °C. Corrector and potentiator compounds were readded at the same concentration used during the 24 h pretreatment. Apical amiloride was used to inhibit the endogenous ENaC currents (100 μM), while forskolin (10 μM) was applied on both the apical and basolateral sides to stimulate CFTR. Measurements were done during a 20 min time frame with recordings every 2 min. The transepithelial potential and transepithelial resistance were measured in an open circuit and transformed to Ieq using Ohm’s law. The maximal increase in Ieq (ΔIeq, the difference in current before and after forskolin or potentiator treatment) was used as a measure for the increased CFTR activity. EC50 values were generated by measuring the impact of different concentrations of compounds on ΔIeq in primary cells. For this purpose, each transwell was treated with a different compound concentration. CFTRInh-172 was added apically at 10 μM to assess the specificity of the response. Dose response data was fitted using a 3-parameter hill function of the form Response = Bottom + (Top – Bottom)/(1 + (EC50/concentration)) to determine EC50 values. Percentage efficacy was calculated using the following formula: (max response – neg control)/(C1 response – neg control).

[4] = Hepatocyte stability, rat; format: in vitro ADME; settings: for CLint scaled at 1 μM: read-out: Hep CLint,u rat (converted)
Description: as §1

[5] = pooled cryopreserved hepatocytes in suspension

SMILES | CLint scaled at 1 μM [1, 5] [mL/min/kg] | CYP induction @10 μM (mRNA) % rifampicin ([2]; data generated by AbbVie team) [%] | CYP induction @10 μM (mRNA) % rifampicin ([2]; data generated by Galapagos) [%] | CYP (3A4) mRNA induction, result in words [2] | Emax [3] [%] | EC50 [3] [nM] | CLint scaled at 1 μM [4, 5] [mL/min/kg] | Hepatocyte stability: %LBF human ([1]; human hepatocytes) [%LBF] | Hepatocyte stability: predicted hepCl human ([1]; human hepatocytes, 1 µM) [L/h/kg] | CLint scaled at 1 μM ([1]; human hepatocytes) [mL/min/kg] | increase in F508del CFTR activity ([3]; addition to the combination of potentiator GLPG1837 and C1 corrector 4) [fold] | Hepatocyte stability: %LBF rat ([4]; rat hepatocytes) [%LBF] | Hepatocyte stability: predicted hepCl rat ([4]; rat hepatocytes, 1 µM) [L/h/kg] | CLint scaled at 1 μM ([4]; rat hepatocytes) [mL/min/kg]
CN(C)S(=O)(=O)NC(=O)c1cc(N2CCC(N3CCOCC3)CC2)c2c(C3CCC3)nn(-c3ccc(F)cc3)c2n1 [Compound 51] | < 11 | 45 | 24 | demonstrated CYP mRNA induction | 371 | 67 | 49 | – | – | – | – | – | – | –
COC1CCN(C2CCN(c3cc(C(=O)NS(=O)(=O)N(C)C)nc4c3c(C3CCC3)nn4-c3ccc(F)cc3)CC2)CC1 [Compound 52, 3-Cyclobutyl-N-(N,N-dimethylsulfamoyl)-1-(4-fluorophenyl)-4-(4-methoxy-[1,4′-bipiperidin]-1′-yl)-1H-pyrazolo[3,4-b]pyridine-6-carboxamide] | – | 4 | 6 | devoid of any CYP mRNA induction liability | 467 | 47 | – | 22 | < 0.28 | < 12.8 | 8 | 30 | 1.53 | 66.2
